Results: patent publication US20250163104A1, “MACROCYCLIC IMMUNOMODULATORS” (priority 2021, published 2025)
Where a SMILES comes first, the peptide text is derived from it. Bridges are numbered along the chain shown (N, C = ends). [ ]: non-standard residue; d: D form. The star is where a group is joined. ξ: configuration not given here. Phe(4-COOH) = N[C@@H](Cc1ccc(C(=O)O)cc1)C(=O)O; Bip = N[C@@H](Cc1ccc(-c2ccccc2)cc1)C(=O)O; Phe(3-Me) = Cc1cccc(C[C@H](N)C(=O)O)c1; Val(3-OH) = CC(C)(O)[C@H](N)C(=O)O; 4Pal = N[C@@H](Cc1ccncc1)C(=O)O; Cha = N[C@@H](CC1CCCCC1)C(=O)O; Cit = NC(=O)NCCC[C@H](N)C(=O)O; Ile(3ξ) = CCC(C)[C@H](N)C(=O)O; Thr(3ξ) = CC(O)[C@H](N)C(=O)O; Chg = N[C@H](C(=O)O)C1CCCCC1; Hpra = C#CCC[C@H](N)C(=O)O; Carboxymethyl = O=C(O)C*; Nle = CCCC[C@H](N)C(=O)O; Orn = NCCC[C@H](N)C(=O)O; Pra = C#CC[C@H](N)C(=O)O; Dab = NCC[C@H](N)C(=O)O; Dap = NC[C@H](N)C(=O)O; Propargyl = C#CC*

What follows are molecules tested against T1, human PD-1 / PD-L1-Ig binding on Jurkat cell line over-expressing human PD-1 (Jurkat-PD-1) (Homo sapiens, UniProt Q15116) (assay: Jurkat-PD-1 Cell Binding High-Content Screening Assay (CBA)). Settings: Jurkat HPD1_PDL1 IC50, Jurkat-PD-1 cells, PE-labeled PD-L1-Ig 20 nM final.
T1 construct: expressed in transfected cells; host or cells: Jurkat
Type: cell-based
Outline: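 PE-PD-L1-Ig 20 nM final; cells in DMEM/10% FCS; cpd pre-incubation 2 h, 37° C; ligand 1 h; PFA fix + Hoechst 33342; high-content imaging read-out.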

T1 sequence (Q15116 25-288): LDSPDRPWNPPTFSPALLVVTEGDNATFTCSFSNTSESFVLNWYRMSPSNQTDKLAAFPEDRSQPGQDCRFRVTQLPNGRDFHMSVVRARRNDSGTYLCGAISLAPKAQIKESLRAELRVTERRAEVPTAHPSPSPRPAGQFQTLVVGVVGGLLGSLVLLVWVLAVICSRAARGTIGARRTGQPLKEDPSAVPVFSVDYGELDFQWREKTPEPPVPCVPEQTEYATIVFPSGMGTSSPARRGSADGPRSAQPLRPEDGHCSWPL

Structure (SMILES)	IC50 [nM]
CC(C)C[C@H]1NC(=O)[C@H](CCCN)NC(=O)[C@H](CCCNC(N)=O)NC(=O)[C@H](Cc2ccc(-c3ccccc3)cc2)NC(=O)[C@H](C(C)C)NC(=O)[C@H](Cc2c[nH]c3ccccc23)NC(=O)[C@H](CC(=O)O)NC(=O)[C@H](Cc2ccc(OCC(=O)O)cc2)NC(=O)[C@H](Cc2ccc(OCC(=O)O)cc2)NC(=O)CSC[C@@H](C(=O)N[C@@H](C)C(N)=O)NC(=O)[C@H]([C@@H](C)O)NC(=O)[C@H](C(C)C)NC(=O)[C@H](CC2CCCCC2)NC(=O)[C@H](Cc2c[nH]cn2)NC1=O [Compound 1594]	19.4

Same assay, conditions: Jurkat-PD-1 cells, PE-labeled PD-L1-Ig 20 nM final; read-out: Jurkat HPD1_PDL1 IC50

Structure (SMILES)	IC50 [nM]
Cc1cccc(C[C@@H]2NC(=O)[C@H](CC(=O)O)NC(=O)[C@H](Cc3ccc(C(=O)O)cc3)NC(=O)[C@H](Cc3ccncc3)NC(=O)CSC[C@@H](C(N)=O)NC(=O)[C@H](CC(=O)O)NC(=O)[C@H](C(C)C)NC(=O)[C@H](CC3CCCCC3)NC(=O)[C@H](CCN)NC(=O)[C@@H](CC(C)C)NC(=O)[C@H](CCCN)NC(=O)[C@H](CCCNC(N)=O)NC(=O)[C@H](Cc3ccc(-c4ccccc4)cc3)NC(=O)[C@H](C(C)C)NC2=O)c1 [Compound 2270] ({CH2CO}-[4Pal][Phe(4-COOH)]D[Phe(3-Me)]V[Bip][Cit][Orn][dL][Dab][Cha]VDC-NH2; thioether N-14)	24.5
CCC(C)[C@@H]1NC(=O)[C@H](Cc2ccc(-c3ccccc3)cc2)NC(=O)[C@H](C(C)C)NC(=O)[C@H](Cc2cccc(C)c2)NC(=O)[C@H](CC(=O)O)NC(=O)[C@H](Cc2ccc(C(=O)O)cc2)NC(=O)[C@H](Cc2ccncc2)NC(=O)CSC[C@@H](C(N)=O)NC(=O)[C@H](CC(N)=O)NC(=O)[C@H](C(C)C)NC(=O)[C@H](CC2CCCCC2)NC(=O)[C@H](CCN)NC(=O)[C@@H](CC(C)C)NC(=O)[C@H](CCCN)NC1=O (stereo partly drawn) [Compound 2279] ({CH2CO}-[4Pal][Phe(4-COOH)]D[Phe(3-Me)]V[Bip][Ile(3ξ)][Orn][dL][Dab][Cha]VNC-NH2; thioether N-14)	15.6
CCC(C)[C@@H]1NC(=O)[C@H](Cc2ccc(-c3ccccc3)cc2)NC(=O)[C@H](C(C)O)NC(=O)[C@H](Cc2c[nH]c3ccccc23)NC(=O)[C@H](CC(=O)O)NC(=O)[C@H](Cc2ccc(OCC(=O)O)cc2)NC(=O)[C@H](C(C)O)NC(=O)CSC[C@@H](C(=O)N[C@@H](CC(N)=O)C(=O)O)NC(=O)[C@H](CO)NC(=O)[C@H](C(C)C)NC(=O)[C@H](CC(C)C)NC(=O)[C@H](CCN)NC(=O)[C@@H](CC(C)C)NC(=O)[C@H](CCCN)NC1=O (stereo partly drawn) [Compound 2572] ({CH2CO}-[Thr(3ξ)]Y(Carboxymethyl)DW[Thr(3ξ)][Bip][Ile(3ξ)][Orn][dL][Dab]LVSCN-OH; thioether N-14)	77.4
CCC(C)[C@@H]1NC(=O)[C@H](Cc2ccc(-c3ccccc3)cc2)NC(=O)[C@H](C(C)C)NC(=O)[C@H](Cc2cc(OC)ccc2F)NC(=O)[C@H](CC(=O)O)NC(=O)[C@H](Cc2ccc(OCC(=O)O)cc2)NC(=O)[C@H](CN)NC(=O)CSC[C@@H](C(=O)N[C@@H](C)C(N)=O)NC(=O)[C@H]([C@@H](C)O)NC(=O)[C@H](C(C)C)NC(=O)[C@H](CC2CCCCC2)NC(=O)[C@H](CCN)NC(=O)[C@@H](CC(C)C)NC(=O)[C@H](CCCN)NC1=O (stereo partly drawn) [Compound 2248]	13.8
CC(C)C[C@@H]1NC(=O)[C@H](Cc2c[nH]c3ccccc23)NC(=O)[C@H](CC(=O)O)NC(=O)[C@H](Cc2ccc(O)cc2)NC(=O)[C@H](Cc2ccccc2)NC(=O)CSC[C@@H](C(=O)NCC(N)=O)NC(=O)[C@H](CO)NC(=O)[C@H](C(C)C)NC(=O)[C@H](CC(C)C)NC(=O)[C@H](CC(N)=O)NC(=O)[C@@H](CC(C)C)NC(=O)[C@H](CCN)NC(=O)[C@H](C(C)C)NC(=O)[C@H](Cc2ccc(-c3ccccc3)cc2)NC1=O [Compound 1059] ({CH2CO}-FYDWL[Bip]V[Dab][dL]NLVSCG-NH2; thioether N-14)	28.5
CCCC[C@H]1NC(=O)[C@H](CCCN)NC(=O)[C@H](CCCNC(N)=O)NC(=O)[C@H](Cc2ccc(-c3ccccc3)cc2)NC(=O)[C@H](C(C)C)NC(=O)[C@H](Cc2c[nH]c3ccccc23)NC(=O)[C@H](CC(=O)O)NC(=O)[C@H](Cc2ccc(OCC(=O)O)cc2)NC(=O)[C@H](CN)NC(=O)CSC[C@@H](C(=O)N[C@@H](C)C(N)=O)NC(=O)[C@H]([C@@H](C)O)NC(=O)[C@H](C(C)C)NC(=O)[C@H](CC2CCCCC2)NC(=O)[C@H](CCN)NC1=O [Compound 1700]	21.4
CC[C@H](C)[C@@H]1NC(=O)[C@H](Cc2ccc(-c3ccccc3)cc2)NC(=O)[C@H](C2CCCCC2)NC(=O)[C@H](Cc2c[nH]c3ccccc23)NC(=O)[C@H](CC(=O)O)NC(=O)[C@H](Cc2ccc(OCC(=O)O)cc2)NC(=O)[C@H](CN)NC(=O)CSC[C@@H](C(=O)N[C@@H](C)C(N)=O)NC(=O)[C@H]([C@@H](C)O)NC(=O)[C@H](C(C)C)NC(=O)[C@H](CC2CCCCC2)NC(=O)[C@H](CCN)NC(=O)[C@@H](CC(C)C)NC(=O)[C@H](CCCN)NC1=O [Compound 1722] ({CH2CO}-[Dap]Y(Carboxymethyl)DW[Chg][Bip]I[Orn][dL][Dab][Cha]VTCA-NH2; thioether N-14)	27.5
CC[C@H](C)[C@@H]1NC(=O)[C@H](Cc2c[nH]c3ccccc23)NC(=O)[C@H](CC(=O)O)NC(=O)[C@H](Cc2ccc(OCC(=O)O)cc2)NC(=O)[C@H](CN)NC(=O)CSC[C@@H](C(=O)N[C@@H](C)C(N)=O)NC(=O)[C@H]([C@@H](C)O)NC(=O)[C@H](C(C)C)NC(=O)[C@H](CC2CCCCC2)NC(=O)[C@H](CCN)NC(=O)[C@@H](CC(C)C)NC(=O)[C@H](CCCN)NC(=O)[C@H](CCC(=O)O)NC(=O)[C@H](Cc2ccc(-c3ccccc3)cc2)NC1=O [Compound 1717] ({CH2CO}-[Dap]Y(Carboxymethyl)DWI[Bip]E[Orn][dL][Dab][Cha]VTCA-NH2; thioether N-14)	27.7

Now from value to molecule:

IC50 [nM]	Structure (SMILES)
7.5	CC(C)C[C@H]1NC(=O)[C@H](CCCN)NC(=O)[C@H](CCCNC(N)=O)NC(=O)[C@H](Cc2ccc(-c3ccccc3)cc2)NC(=O)[C@H](C(C)C)NC(=O)[C@H](Cc2c[nH]c3ccccc23)NC(=O)[C@H](CC(=O)O)NC(=O)[C@H](Cc2cccs2)NC(=O)[C@H](CN)NC(=O)CSC[C@@H](C(=O)N[C@@H](C)C(N)=O)NC(=O)[C@H]([C@@H](C)O)NC(=O)[C@H](C(C)C)NC(=O)[C@H](CC2CCCCC2)NC(=O)[C@H](CCN)NC1=O [Compound 2128]
12.8	CC(C)C[C@@H]1NC(=O)[C@H](Cc2c[nH]c3ccccc23)NC(=O)[C@H](CC(=O)O)NC(=O)[C@H](Cc2ccc(O)cc2)NC(=O)[C@H](Cc2ccccc2)NC(=O)CSC[C@@H](C(=O)N[C@@H](C)C(N)=O)NC(=O)[C@H](CO)NC(=O)[C@H](C(C)C)NC(=O)[C@H](CC(C)C)NC(=O)[C@H](CC(N)=O)NC(=O)[C@@H](CC(C)C)NC(=O)[C@H](CCCN)NC(=O)[C@H](C(C)C)NC(=O)[C@H](Cc2ccc(-c3ccccc3)cc2)NC1=O [Compound 1065] ({CH2CO}-FYDWL[Bip]V[Orn][dL]NLVSCA-NH2; thioether N-14)
7.7	Cc1cccc(C[C@@H]2NC(=O)[C@H](CC(=O)O)NC(=O)[C@H](Cc3ccncc3)NC(=O)[C@H](Cc3ccc(OCC(=O)O)cc3)NC(=O)CSC[C@@H](C(=O)NCC(N)=O)NC(=O)[C@H](CO)NC(=O)[C@H](C(C)C)NC(=O)[C@H](CC(C)C)NC(=O)[C@H](CCN)NC(=O)[C@@H](CC(C)C)NC(=O)[C@H](CCCN)NC(=O)[C@H](C(C)C)NC(=O)[C@H](Cc3ccc(-c4ccccc4)cc3)NC(=O)[C@H](CC(C)C)NC2=O)c1 [Compound 1265] ({CH2CO}-Y(Carboxymethyl)[4Pal]D[Phe(3-Me)]L[Bip]V[Orn][dL][Dab]LVSCG-NH2; thioether N-14)
11.4	C#CCC[C@@H]1NC(=O)[C@H](Cc2ccc(-c3ccccc3)cc2)NC(=O)[C@H](C(C)C)NC(=O)[C@H](Cc2cccc(C)c2)NC(=O)[C@H](CC(=O)O)NC(=O)[C@H](Cc2ccc(C(=O)O)cc2)NC(=O)[C@H](CN)NC(=O)CSC[C@@H](C(=O)N[C@@H](CCN)C(N)=O)NC(=O)[C@H]([C@@H](C)O)NC(=O)[C@H](C(C)C)NC(=O)[C@H](CC2CCCCC2)NC(=O)[C@H](CCN)NC(=O)[C@@H](CC(C)C)NC(=O)[C@H](CCCN)NC1=O [Compound 2023] ({CH2CO}-[Dap][Phe(4-COOH)]D[Phe(3-Me)]V[Bip][Hpra][Orn][dL][Dab][Cha]VTC[Dab]-NH2; thioether N-14)
8.3	C#CC[C@H](NC(=O)[C@H](CCN)NC(=O)[C@@H]1CSCC(=O)N[C@@H](CCCN)C(=O)N[C@@H](Cc2ccc(C(=O)O)cc2)C(=O)N[C@@H](CC(=O)O)C(=O)N[C@@H](Cc2cccc(C)c2)C(=O)N[C@@H](Cc2ccc(C(=O)O)cc2)C(=O)N[C@@H](Cc2ccc(-c3ccccc3)cc2)C(=O)N[C@@H](Cc2ccc(C(=O)O)cc2)C(=O)N[C@@H](CCCN)C(=O)N[C@H](CC(C)C)C(=O)N[C@@H](CCN)C(=O)N[C@@H](CC2CCCCC2)C(=O)N[C@@H](C(C)(C)O)C(=O)N[C@@H](CO)C(=O)N1)C(N)=O [Compound 1846] ({CH2CO}-[Orn][Phe(4-COOH)]D[Phe(3-Me)][Phe(4-COOH)][Bip][Phe(4-COOH)][Orn][dL][Dab][Cha][Val(3-OH)]SC[Dab][Pra]-NH2; thioether N-14)
7.6	C#CCOc1ccc(C[C@@H]2NC(=O)[C@H](Cc3ccc(-c4ccccc4)cc3)NC(=O)[C@H](Cc3ccc(OCC(=O)O)cc3)NC(=O)[C@H](Cc3cccc(C)c3)NC(=O)[C@H](CC(=O)O)NC(=O)[C@H](Cc3ccc(OCC(=O)O)cc3)NC(=O)[C@H](CCCC)NC(=O)CSC[C@@H](C(=O)N[C@@H](CCN)C(N)=O)NC(=O)[C@H](CCC(=O)O)NC(=O)[C@H](C(C)C)NC(=O)[C@H](CC3CCCCC3)NC(=O)[C@H](CCN)NC(=O)[C@@H](CC(C)C)NC(=O)[C@H](CCCN)NC2=O)cc1 [Compound 1838] ({CH2CO}-[Nle]Y(Carboxymethyl)D[Phe(3-Me)]Y(Carboxymethyl)[Bip]Y(Propargyl)[Orn][dL][Dab][Cha]VEC[Dab]-NH2; thioether N-14)
